Reference: article PMC3279408, “A Non-Mammalian Type Opsin 5 Functions Dually in the Photoreceptive and Non-Photoreceptive Organs of Birds” (PLoS ONE, 2012)

Target: T1, cOpn5L2 (Gallus gallus, UniProt B3XZF6)
T1 construct: N-terminal peptide MEEQYISKLHPVVDY, C-terminal peptide IRLSPTAKVESQGAARH (antigens)
T1 sequence (B3XZF6 1-348): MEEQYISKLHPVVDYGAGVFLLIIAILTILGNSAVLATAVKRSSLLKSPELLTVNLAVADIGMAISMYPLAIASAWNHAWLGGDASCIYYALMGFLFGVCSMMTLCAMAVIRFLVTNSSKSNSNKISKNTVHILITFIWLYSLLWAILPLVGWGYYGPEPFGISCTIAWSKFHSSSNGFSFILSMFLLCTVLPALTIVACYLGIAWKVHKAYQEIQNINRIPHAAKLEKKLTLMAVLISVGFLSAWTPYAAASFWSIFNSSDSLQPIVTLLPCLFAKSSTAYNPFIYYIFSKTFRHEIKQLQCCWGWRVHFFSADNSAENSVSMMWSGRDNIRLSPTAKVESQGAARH
Experiment: absorption spectra of purified pigment, HPLC of retinal oximes, GTPgammaS binding Gi activation assay
Conditions: 5 uM retinal added to cell medium, pH 6.5, spectra at 0 C

Structure (SMILES)	absorption spectra of purified pigment, HPLC of retinal oximes, GTPgammaS bindin (agonist, Gi assay in dark at pH 7.0, 0 C, retinylidene chromophore)	absorption spectra of purified pigment, HPLC of retinal oximes, GTPgammaS bindin (chromophore of UV-absorbing form, UV light converts it to the active all-trans form)
CC1=C(/C=C/C(C)=C/C=C/C(C)=C/C=O)C(C)(C)CCC1 [all-trans-retinal]	all-trans-retinal most likely incorporates directly into cOpn5L2, which results in induction of basal constitutive activity	
CC1=C(/C=C/C(C)=C/C=C\C(C)=C\C=O)C(C)(C)CCC1 [11-cis-retinal]		absorption spectrum and the light-dependent changes of cOpn5L2 reconstituted with 11-cis-retinal
